# Biological target: T1, AlbS (albireticulene synthase) (Streptomyces albireticuli, UniProt A0A2A2D8W5)
# T1 sequence (A0A2A2D8W5 1-369): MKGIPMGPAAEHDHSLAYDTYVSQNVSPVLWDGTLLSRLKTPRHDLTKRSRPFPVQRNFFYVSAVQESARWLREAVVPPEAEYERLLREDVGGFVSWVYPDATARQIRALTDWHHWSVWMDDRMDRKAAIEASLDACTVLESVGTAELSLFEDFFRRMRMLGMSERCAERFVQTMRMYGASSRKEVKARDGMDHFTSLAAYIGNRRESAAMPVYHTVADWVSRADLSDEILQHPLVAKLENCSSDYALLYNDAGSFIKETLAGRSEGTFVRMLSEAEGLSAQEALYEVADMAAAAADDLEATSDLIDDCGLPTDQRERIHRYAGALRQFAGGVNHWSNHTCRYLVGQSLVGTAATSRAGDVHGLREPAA
# Assay: GC-MS product analysis
# Assay type: biochemical
# Conditions: products: five sesquiterpenes (3-7)
smiles,measurement,value
CC(C)=CCC/C(C)=C/CC/C(C)=C/COP(=O)(O)OP(=O)(O)O [FPP],GC-MS product analysis,GC-MS analysis revealed that FPP was converted into five sesquiterpenes
